Experimental data taken from patent US20240360146A1, “BRUTON'S TYROSINE KINASE AND MUTANT DEGRADER, COMPOSITION AND APPLICATION THEREOF” (HANGZHOU HEALZEN THERAPEUTICS CO., LTD., priority 2021, published 2024).
pIC50: −log10 of the molar value.

Assays:
Assay type in all cases: cell-based
[1] = test system: Mino cells; assay: Inhibitory activity on Mino cell proliferation (MTS); conditions: Homo sapiens, 168 h incubation
How it was run: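 Cells seeded at 10000/well, treated with compounds from 1000 nM (4-fold, 8 points) for 72 h (OCI-LY10) or 168 h (Mino) at 37° C. MTS added for 2 h, stopped with SDS, absorbance read at 490 and 650 nm; IC50 from dose-response fit.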

[2] = test system: OCI-LY10 cells; assay: Inhibitory activity on OCI-LY10 cell proliferation (MTS); conditions: Homo sapiens, 72 h
Procedure: The anti-tumor efficacy of the compounds was tested by measuring their inhibitory effects on OCI-LY10 and Mino cell proliferation. OCI-LY10 and Mino cells were cultured in RPMI-1640 medium containing 10% fetal calf serum. OCI-LY10 and Mino cells were digested, inoculated in a 96-well plate at a cell concentration of 10000 cells/well, and incubated overnight at 37° C., 5% CO2. Compounds of different concentrations (1000 nM, 4-fold dilution, 8 points) were added to the 96-well plate and incubated for 72 h (LY10) or 168 h (Mino) at 37° C. and 5% CO2, and then 20 uL of MTS was added to each well. After incubation for 2 h, 25 μl of 10% SDS was added to each well to terminate the reaction. The absorbance at 490 nm and 650 nm were measured with a microplate reader. IC50 was calculated using GraphPad Prism 5.0.

[3] = target: T1, BTK (Homo sapiens, UniProt Q06187); assay: BTK degradation activity test in Mino cells; conditions: 16 h incubation, Western blot or Elisa
T1 construct: endogenous in cells; host or cells: Mino cells
T1 sequence (Q06187 whole entry): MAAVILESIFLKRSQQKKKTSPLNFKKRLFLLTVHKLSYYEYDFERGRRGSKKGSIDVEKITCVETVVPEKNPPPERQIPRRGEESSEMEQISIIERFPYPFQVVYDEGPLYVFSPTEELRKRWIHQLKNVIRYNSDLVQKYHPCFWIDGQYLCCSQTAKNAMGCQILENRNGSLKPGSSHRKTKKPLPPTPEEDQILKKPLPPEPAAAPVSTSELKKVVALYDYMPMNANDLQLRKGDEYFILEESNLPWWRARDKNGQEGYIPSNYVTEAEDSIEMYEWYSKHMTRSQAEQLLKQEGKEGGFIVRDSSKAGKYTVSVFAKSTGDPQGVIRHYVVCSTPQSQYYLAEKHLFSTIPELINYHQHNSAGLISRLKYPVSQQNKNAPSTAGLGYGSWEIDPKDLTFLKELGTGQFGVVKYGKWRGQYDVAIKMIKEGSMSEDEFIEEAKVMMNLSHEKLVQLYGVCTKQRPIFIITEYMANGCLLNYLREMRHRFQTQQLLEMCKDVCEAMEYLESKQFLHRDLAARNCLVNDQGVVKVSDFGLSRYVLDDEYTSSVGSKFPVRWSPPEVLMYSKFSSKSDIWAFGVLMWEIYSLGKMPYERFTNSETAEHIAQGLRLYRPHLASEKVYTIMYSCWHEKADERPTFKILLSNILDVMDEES
How it was run: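 Mino cells treated with a concentration series of compound for 16 h, then lysed; total protein by BCA. BTK quantified by Western blot or ELISA, degradation rate calculated against blank control, and DC50 fitted from the degradation curve.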

Row | SMILES | pIC50 [1] | pIC50 [2] | DC50 [3] [nM]
1 | CN1CCN([C@@H]2CCCN(c3nnc(C(N)=O)c(Nc4ccc(C5CCN(CC6(F)CCN(c7ccc8c(c7)C(=O)N(C7CCC(=O)NC7=O)C8=O)C6)CC5)cc4)n3)C2)C1=O (stereo partly drawn) [Compound 121, 5-((4-(1-((1-(2-(2,6-dioxopiperidin-3-yl)-1,3-dioxoisoindolin-5-yl)-3-fluoropyrrolidin-3-yl)methyl)piperidin-4-yl)phenyl)amino)-3-((R)-3-(3-methyl-2-oxoimidazolin-1-yl)piperidin-1-yl)-1,2,4-triazin-6-carboxamide] | 8.43 | 9.13 | < 1
2 | CN1CCN(C2CC3CC2N(c2cnc(C(N)=O)c(Nc4ccc(C5CCN(CC6CCN(c7ccc8c(c7)C(=O)N(C7CCC(=O)NC7=O)C8=O)CC6)CC5)cc4)n2)C3)C1=O (stereo not drawn) [Compound 118, 3-((4-(1-((1-(2-(2,6-dioxopiperidin-3-yl)-1,3-dioxoisoindolin-5-yl)piperidin-4-yl)methyl)piperidin-4-yl)phenyl)amino)-5-(6-(3-methyl-2-oxoimidazolin-1-yl)-2-azabicyclo[2.2.1]heptan-2-yl)pyrazin-2-carboxamide] | 7.97 | 9.57 | < 1
3 | CN1C(=O)N([C@@H]2CCCN(c3nnc(C(N)=O)c(Nc4ccc(C5CCN(CC6CCN(c7ccc8c(c7)C(=O)N(C7CCC(=O)NC7=O)C8=O)CC6)CC5)cc4)n3)C2)CC12CC2 (stereo partly drawn) [Compound 138, 5-((4-(1-((1-(2-(2,6-dioxopiperidin-3-yl)-1,3-dioxoisoindolin-5-yl)piperidin-4-yl)methyl)piperidin-4-yl)phenyl)amino)-3-((R)-3-(4-methyl-5-oxo-4,6-diazaspiro[2.4]heptan-6-yl)piperidin-1-yl)-1,2,4-triazin-6-carboxamide] | 8.51 | 10.10 | < 1
4 | CN1CCN([C@@H]2CCCN(c3nnc(C(N)=O)c(Nc4ccc(C5CCN(CC6CCN(c7ccc8c(c7)C(=O)N(C7CCC(=O)NC7=O)C8=O)C6)CC5)cc4)n3)C2)C1=O (stereo partly drawn) [Compound 124, 5-((4-(1-((1-(2-(2,6-dioxopiperidin-3-yl)-1,3-dioxoisoindolin-5-yl)pyrrolidin-3-yl)methyl)piperidin-4-yl)phenyl)amino)-3-((R)-3-(3-methyl-2-oxoimidazolin-1-yl)piperidin-1-yl)-1,2,4-triazin-6-carboxamide] | 8.31 | > 9.59 | < 1
5 | Cc1cc(N2CCC(CN3CCN(c4ccc(Nc5nc(N6CCC[C@@H](N7CCN(C)C7=O)C6)nnc5C(N)=O)cc4F)CC3)CC2)ccc1C(=O)NC1CCC(=O)NC1=O (stereo partly drawn) [Compound 180, 5-((4-(4-((1-(4-((2,6-dioxopiperidin-3-yl)carbamoyl)-3-methylphenyl)piperidin-4-yl)methyl)piperazin-1-yl)-3-fluorophenyl)amino)-3-((R)-3-(3-methyl-2-oxoimidazolidin-1-yl)piperidin-1-yl)-1,2,4-triazin-6-carboxamide] | 8.97 | > 9.00 | < 1
6 | CN1CCN([C@@H]2CCCN(c3nnc(C(N)=O)c(Nc4ccc(C5CCN(CC6CCN(c7ccc8c(c7)C(=O)N(C7CCC(=O)NC7=O)C8=O)CC6)CC5)c(F)c4)n3)C2)C1=O (stereo partly drawn) [Compound 129, 5-((4-(1-((1-(2-(2,6-dioxopiperidin-3-yl)-1,3-dioxoisoindolin-5-yl)piperidin-4-yl)methyl)piperidin-4-yl)-3-fluorophenyl)amino)-3-((R)-3-(3-methyl-2-oxoimidazolin-1-yl)piperidin-1-yl)-1,2,4-triazin-6-carboxamide] | 8.51 | 9.85 | < 1
7 | CN1CCN([C@@H]2CCCN(c3nnc(C(N)=O)c(Nc4ccc(N5CCC(CN6CCN(c7ccc8c(c7)C(=O)N(C7CCC(=O)NC7=O)C8=O)CC6)CC5)cc4)n3)C2)C1=O (stereo partly drawn) [Compound 119, 5-((4-(4-((4-(2-(2,6-dioxopiperidin-3-yl)-1,3-dioxoisoindolin-5-yl)piperazin-1-yl)methy 1)piperidin-1-yl)phenyl)amino)-3-((R)-3-(3-methyl-2-oxoimidazolin-1-yl)piperidin-1-yl)-1,2,4-triazin-6-carboxamide] | 8.09 | 9.42 | < 1
8 | CN1CCN([C@@H]2CCCN(c3nnc(C(N)=O)c(Nc4ccc(N5CCN(CC6CCN(c7ccc8c(c7)CN(C7CCC(=O)NC7=O)C8=O)CC6)CC5)c(F)c4)n3)C2)C1=O (stereo partly drawn) [Compound 167, 5-((4-(4-((1-(2-(2,6-dioxopiperidin-3-yl)-1-oxoisoindolin-5-yl)piperidin-4-yl)methyl)piperazin-1-yl)-3-fluorophenyl)amino)-3-((R)-3-(3-methyl-2-oxoimidazolidin-1-yl)piperidin-1-yl)-1,2,4-triazin-6-carboxamide] | 8.62 | 9.35 | < 1
9 | NC(=O)c1nnc(N2CCC[C@@H](N3CCN(CC(F)(F)F)C3=O)C2)nc1Nc1ccc(C2CCN(CC3CCN(c4ccc5c(c4)C(=O)N(C4CCC(=O)NC4=O)C5=O)CC3)CC2)cc1 (stereo partly drawn) [Compound 141, 5-((4-(1-((1-(2-(2,6-dioxopiperidin-3-yl)-1,3-dioxoisoindolin-5-yl)piperidin-4-yl)methyl)piperidin-4-yl)phenyl)amino)-3-((R)-3-(2-oxo-3-(2,2,2-trifluoroethyl)imidazolin-1-yl)piperidin-1-yl)-1,2,4-triazin-6-carboxamide] | 8.41 | 8.66 | < 1
10 | CN1CCN([C@@H]2CCCN(c3nnc(C(N)=O)c(Nc4ccc(N5CCN(CC6CCN(c7ccc(NC8CCC(=O)NC8=O)cn7)CC6)CC5)c(F)c4)n3)C2)C1=O (stereo partly drawn) [Compound 203, 5-((4-(4-((1-(5-((2,6-dioxopiperidin-3-yl)amino)pyridin-2-yl)piperidin-4-yl)methyl)piperazin-1-yl)-3-fluorophenyl)amino)-3-((R)-3-(3-methyl-2-oxoimidazolidin-1-yl)piperidin-1-yl)-1,2,4-triazin-6-carboxamide] | 8.90 | 8.58 | < 1
11 | CN1CCN([C@@H]2CCCN(c3ncc(C(N)=O)c(Nc4ccc(C5CCN(CC6CCN(c7ccc8c(c7)C(=O)N(C7CCC(=O)NC7=O)C8=O)C6)CC5)cc4)n3)C2)C1=O (stereo partly drawn) [Compound 116, 4-((4-(1-((1-(2-(2,6-dioxopiperidin-3-yl)-1,3-dioxoisoindolin-5-yl)pyrrolidin-3-yl)methyl)piperidin-4-yl)phenyl)amino)-2-((R)-3-(3-methyl-2-oxoimidazolin-1-yl)piperidin-1-yl)pyrimidin-5-carboxamide] | 8.87 | 9.96 | < 1
12 | CN1CCN([C@@H]2CCCN(c3nnc(C(N)=O)c(Nc4ccc(N5CCN(CC6CCN(c7ccc(NC8CCC(=O)NC8=O)nc7)CC6)CC5)c(F)c4)n3)C2)C1=O (stereo partly drawn) [Compound 202, 5-((4-(4-((1-(6-((2,6-dioxopiperidin-3-yl)amino)pyridin-3-yl)piperidin-4-yl)methyl)piperazin-1-yl)-3-fluorophenyl)amino)-3-((R)-3-(3-methyl-2-oxoimidazolidin-1-yl)piperidin-1-yl)-1,2,4-triazin-6-carboxamide] | 8.17 | 8.98 | < 1
13 | CN1CCN([C@@H]2CCCN(c3ncc(C(N)=O)c(Nc4ccc(C5CCN(CC6CCN(c7ccc8c(c7)C(=O)N(C7CCC(=O)NC7=O)C8=O)CC6)CC5)cc4)n3)C2)C1=O (stereo partly drawn) [Compound 117, 4-((4-(1-((1-(2-(2,6-dioxopiperidin-3-yl)-1,3-dioxoisoindolin-5-yl)piperidin-4-yl)methyl)piperidin-4-yl)phenyl)amino)-2-((R)-3-(3-methyl-2-oxoimidazolin-1-yl)piperidin-1-yl)pyrimidin-5-carboxamide] | 8.51 | 9.48 | < 1
14 | CN1CCN([C@@H]2CCCN(c3nnc(C(N)=O)c(Nc4ccc(N5CCN(CC6CCN(c7ccc(N8CCC(=O)NC8=O)cn7)CC6)CC5)c(F)c4)n3)C2)C1=O [Compound 196, (R)-5-((4-(4-((1-(5-(2,4-dioxotetrahydropyrimidin-1(2H)-yl)pyridin-2-yl)piperidin-4-yl)methyl)piperazin-1-yl)-3-fluorophenyl)amino)-3-(3-(3-methyl-2-oxoimidazolidin-1-yl)piperidin-1-yl)-1,2,4-triazin-6-carboxamide] | 8.42 | 9.28 | < 1
15 | CN1CCN([C@@H]2CCCN(c3nnc(C(N)=O)c(Nc4ccc(C5CCN(C(=O)C6CCN(c7ccc8c(c7)C(=O)N(C7CCC(=O)NC7=O)C8=O)C6)CC5)cc4)n3)C2)C1=O (stereo partly drawn) [Compound 127, 5-((4-(1-(1-(2-(2,6-dioxopiperidin-3-yl)-1,3-dioxoisoindolin-5-yl)pyrrolidin-3-carbonyl)piperidin-4-yl)phenyl)amino)-3-((R)-3-(3-methyl-2-oxoimidazolin-1-yl)piperidin-1-yl)-1,2,4-triazin-6-carboxamide] | 8.69 | 9.41 | < 1
